Reference: ChEMBL document CHEMBL1144299, “Quinazolinethiones and quinazolinediones, novel inhibitors of inosine monophosphate dehydrogenase: synthesis and initial structure-activity relationships” (Bioorg Med Chem Lett, 2005)
pIC50: −log10 of the molar value.

How the values were obtained:
[1] = molecular target: Inosine-5'-monophosphate dehydrogenase 2 (Homo sapiens, UniProt P12268); assay: In vitro inhibitory concentration against inosine-5'-monophosphate dehydrogenase
[2] = In vitro concentration required to inhibit peripheral blood mononuclear cell proliferation was determined; assay type: functional
[3] = Percent inhibition of inosine-5'-monophosphate dehydrogenase was determined at 1 uM concentration; assay type: functional
[4] = In vitro concentration required to inhibit peripheral blood mononuclear cell proliferation; Inactive; assay type: functional

Row | Compound | pIC50 [1] | inhibition [3] | pIC50 [2] | IC50 [4]
1 | COc1cc2[nH]c(=S)n(C(C)C)c(=O)c2cc1-c1cnco1 | – | 27% | – | –
2 | COc1cc2[nH]c(=O)n(CCc3ccncc3)c(=O)c2cc1-c1cnco1 | 6.73 | – | 5.92 | –
3 | COc1cc2[nH]c(=O)n(C)c(=O)c2cc1-c1cnco1 | 6.98 | – | 5.40 | –
4 | COc1cc2[nH]c(=S)n(CCc3ccccn3)c(=O)c2cc1-c1cnco1 | 7.04 | – | 6.00 | –
5 | COc1cc2[nH]c(=S)n(Cc3ccncc3)c(=O)c2cc1-c1cnco1 | 7.00 | – | 5.39 | –
6 | COc1cc2[nH]c(=O)n(CCN3CCOCC3)c(=O)c2cc1-c1cnco1 | 6.53 | – | 5.04 | –
7 | COc1cc2[nH]c(=S)n(CC(C)(C)C)c(=O)c2cc1-c1cnco1 | 6.09 | – | – | –
8 | COc1cc2[nH]c(=S)n(-c3cccnc3)c(=O)c2cc1-c1cnco1 | 5.77 | – | – | –

Second part, led by results:

Row | pIC50 [1] | inhibition [3] | Compound | pIC50 [2] | IC50 [4]
9 | 7.07 | – | COc1cc2[nH]c(=O)n(CCn3ccnc3)c(=O)c2cc1-c1cnco1 | 5.62 | –
10 | 7.77 | – | COc1cc2[nH]c(=S)n(C)c(=O)c2cc1-c1cnco1 | 5.96 | –
11 | 7.89 | – | COc1cc2[nH]c(=S)n(CCc3ccncc3)c(=O)c2cc1-c1cnco1 | 6.11 | –
12 | 7.66 | – | COc1cc2[nH]c(=S)n(CCCn3ccnc3)c(=O)c2cc1-c1cnco1 | 6.01 | –
13 | 7.33 | – | COc1cc2[nH]c(=O)n(CCc3c[nH]cn3)c(=O)c2cc1-c1cnco1 | – | Not Active
14 | 7.15 | – | COc1cc2[nH]c(=S)n(CCN3CCOCC3)c(=O)c2cc1-c1cnco1 | 5.56 | –
15 | 7.52 | – | COc1cc2nc(S)nc(O)c2cc1-c1cnco1 | – | –
